# Data: patent publication US20240018108A1, “METHODS AND COMPOSITIONS FOR INHIBITION OF DIHYDROOROTATE DEHYDROGENASE” (OHIO STATE INNOVATION FOUNDATION, priority 2019, published 2024)
# Key:
# [1] = target: T1, h-DHODH (Homo sapiens, UniProt Q02127); assay: DHODH enzymatic assay (DCIP reduction); type: biochemical; conditions: recombinant human enzyme, 25° C., pH 8.0
# T1 construct: made in house
# Procedure: DHODH Enzymatic Assay: DHODH activity was determined at 25° C. following the reduction of 2,6-dichloroindophenol sodium salt (DCIP) at 600 nm (ε=18 800 M^−1 cm^−1) on a spectrophotometer. The reaction medium used contained 50 mM Tris-HCl, pH 8.0, 0.1% Triton X-100, 0.1 mM LDHO, 0.025 mM CoQ1, and 0.06 mM DCIP. The reaction was started by addition of the enzyme. The inhibitory potency of the compounds was evaluated by measuring the initial velocity of the reaction either in the absence or in the presence of the compounds at the indicated concentrations. The DHODH enzyme used was the recombinant human enzyme prepared as previously described (Helene Munier-Lehmann, et al., J. Med. Chem. 2015, 58:860-877).
# [2] = test system: MOLM13 cell line; assay: MTS assay for cell growth/viability, MOLM13; type: cell-based; conditions: Homo sapiens
# Procedure: MTS assay for cell growth/viability: Mitochondrial activity was measured to determine cell proliferation using an MTS assay ([…]). Metabolically active cells convert MTS tetrazolium salt into a purple formazan product that is soluble in tissue culture medium. The amount of formazan measured at 490 nm absorbance is proportional to the number of proliferating cells. […] Triplicate wells were set up for each condition. At 96 hours, the MTS reagent was added and after approximately 4 hours the plates were read in a spectrophotometer.
# (§1) Biological Activity: Cell proliferation assays were carried out using the MTS assay described herein using two AML cell lines (i.e., MOLM13 and OCI-AML3) with varied genetic backgrounds. The assays were carried out in a blinded fashion.
# [3] = test system: OCI-AML3 cell line; assay: MTS assay for cell growth/viability, OCI-AML3; type: cell-based; conditions: Homo sapiens, OCI-AML-3, 96 hours, Table 2 (one study)
# Procedure: (§2) MTS assay for cell growth/viability: Mitochondrial activity was measured to determine cell proliferation using an MTS assay ([…]). Metabolically active cells convert MTS tetrazolium salt into a purple formazan product that is soluble in tissue culture medium. The amount of formazan measured at 490 nm absorbance is proportional to the number of proliferating cells. MTS assays in AML cell lines were carried out with 20K cells plated per well in 96-well plates with Cpd3 or brequinar in a dose series ranging from 0.0001 to 10 μM. Triplicate wells were set up for each condition. At 96 hours, the MTS reagent was added and after approximately 4 hours the plates were read in a spectrophotometer.
# as §1
# [4] = test system: AML cell lines (MOLM13 and OCI-AML3); assay: MTS cell proliferation assay, AML cell lines; type: cell-based; conditions: range over the two AML cell lines, one study; read-out: growth arrest in AML cell lines, IC50 range
# Procedure: as §2, §1
# [5] = MOLM-13, Table 3 (second study), dose range of 2 nM to 10000 nM
# T1 sequence (Q02127 whole entry): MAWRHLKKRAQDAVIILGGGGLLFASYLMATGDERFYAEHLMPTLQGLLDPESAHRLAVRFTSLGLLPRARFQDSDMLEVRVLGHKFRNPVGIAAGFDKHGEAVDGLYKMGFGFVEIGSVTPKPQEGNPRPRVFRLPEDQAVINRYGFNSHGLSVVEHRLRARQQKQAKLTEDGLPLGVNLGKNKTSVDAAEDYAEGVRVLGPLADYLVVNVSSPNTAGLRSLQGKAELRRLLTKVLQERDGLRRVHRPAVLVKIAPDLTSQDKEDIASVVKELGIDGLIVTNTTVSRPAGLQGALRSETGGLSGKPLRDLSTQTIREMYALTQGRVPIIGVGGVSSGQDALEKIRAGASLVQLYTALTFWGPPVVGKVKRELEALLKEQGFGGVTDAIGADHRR
SMILES,IC50 [1],"IC50 [2, 5]",IC50 [3],"IC50 ([2]; MOLM-13, 96 hours, Table 2 (one study))",IC50 [4]
"CCOc1ccc(-c2ccc(-c3cc(C(=O)O)c4cc(F)ccc4n3)cc2Cl)cc1 [Cpd19, 2-(2-chloro-4′-ethoxy-[1,1′-biphenyl]-4-yl)-6-fluoroquinoline-4-carboxylic acid]",1.1 nM,< 2 nM,–,–,–
CCCCOc1cccc(-c2ccc(-c3cc(C(=O)O)c4cc(F)ccc4n3)c(Cl)c2)c1 [Cpd27],< 0.51 nM,16 nM,–,–,–
"CCOc1ccc(-c2cc(F)c(-c3cc(C(=O)O)c4cc(F)ccc4n3)c(F)c2)cc1 [Cpd17, 2-(4′-ethoxy-3,5-difluoro-[1,1′-biphenyl]-4-yl)-6-fluoroquinoline-4-carboxylic acid]",6.2 nM,43 nM,–,–,–
"O=C(O)c1cc(-c2ccc(-c3ccccc3F)c(F)c2)nc2ccc(F)cc12 [Cpd5, 2-(2,2′-difluoro-[1,1′-biphenyl]-4-yl)-6-fluoroquinoline-4-carboxylic acid]",1.66 nM,14 nM,–,–,–
"CCCCOc1cccc(-c2cc(F)c(-c3cc(C(=O)O)c4cc(F)ccc4n3)cc2F)c1 [Cpd11, 2-(3′-butoxy-2,5-difluoro-[1,1′-biphenyl]-4-yl)-6-fluoroquinoline-4-carboxylic acid]",< 0.51 nM,–,–,–,–
"CCNc1ccc(-c2ccc(-c3cc(C(=O)O)c4cc(F)ccc4n3)cc2F)cc1 [Cpd6, 2-(4′-(ethylamino)-2-fluoro-[1,1′-biphenyl]-4-yl)-6-fluoroquinoline-4-carboxylic acid]",1.34 nM,< 2 nM,–,–,–
"CCOc1ccc(-c2ccc(-c3cc(C(=O)O)c4cc(F)ccc4n3)cc2F)cc1 [Cpd1, 2-(4′-ethoxy-2-fluoro-[1,1′-biphenyl]-4-yl)-6-fluoroquinoline-4-carboxylic acid]",2.43 nM,13 nM,19.5 nM,14.5 nM,14.5 to 19.5 nM
CCOc1cccc(-c2cc(F)c(-c3cc(C(=O)O)c4cc(F)ccc4n3)c(F)c2)c1 [Cpd18],1.2 nM,< 2 nM,–,–,–
"CCOc1ccc(-c2cc(F)c(-c3cc(C(=O)O)c4cc(F)ccc4n3)cc2F)cc1 [Cpd7, 2-(4′-ethoxy-2,5-difluoro-[1,1′-biphenyl]-4-yl)-6-fluoroquinoline-4-carboxylic acid]",1.4 nM,< 2 nM,–,–,–
"CCOc1cccc(-c2ccc(-c3cc(C(=O)O)c4cc(F)ccc4n3)cc2F)c1 [Cpd2, 2-(3′-ethoxy-2-fluoro-[1,1′-biphenyl]-4-yl)-6-fluoroquinoline-4-carboxylic acid]",< 0.5 nM,16 nM,–,–,–
O=C(O)c1cc(-c2ccc(-c3ccccc3)c(F)c2)nc2ccc(F)cc12 [Cpd4],0.72 nM,41 nM,–,–,–
CCOc1cccc(-c2ccc(-c3cc(C(=O)O)c4cc(F)ccc4n3)cc2C)c1 [Cpd14],1.4 nM,< 2 nM,–,–,–
"CCOc1ccc(-c2ccc(-c3cc(C(=O)O)c4cc(F)ccc4n3)cc2C)cc1 [Cpd13, 2-(4′-ethoxy-2-methyl-[1,1′-biphenyl]-4-yl)-6-fluoroquinoline-4-carboxylic acid]",1.5 nM,< 2 nM,–,–,–
"CCCCOc1cccc(-c2ccc(-c3cc(C(=O)O)c4cc(F)ccc4n3)c(F)c2)c1 [Cpd12, 2-(3′-butoxy-3-fluoro-[1,1′-biphenyl]-4-yl)-6-fluoroquinoline-4-carboxylic acid]",0.7 nM,< 2 nM,–,–,–
"CCOc1ccc(-c2ccc(-c3cc(C(=O)O)c4cc(F)ccc4n3)c(Cl)c2)cc1 [Cpd24, 2-(3-chloro-4′-ethoxy-[1,1′-biphenyl]-4-yl)-6-fluoroquinoline-4-carboxylic acid]",22.2 nM,464 nM,–,–,–
"CCOc1ccc(-c2ccc(-c3cc(C(=O)O)c4cc(F)ccc4n3)c(C)c2)cc1 [Cpd21, 2-(4′-ethoxy-3-methyl-[1,1′-biphenyl]-4-yl)-6-fluoroquinoline-4-carboxylic acid]",11.6 nM,538 nM,–,–,–
"CCCCOc1cccc(-c2ccc(-c3cc(C(=O)O)c4cc(F)ccc4n3)cc2C)c1 [Cpd25, 2-(3′-butoxy-2-methyl-[1,1′-biphenyl]-4-yl)-6-fluoroquinoline-4-carboxylic acid]",< 0.51 nM,< 2 nM,–,–,–
"CCCCOc1cccc(-c2ccc(-c3cc(C(=O)O)c4cc(F)ccc4n3)c(C)c2)c1 [Cpd22, 2-(3′-butoxy-3-methyl-[1,1′-biphenyl]-4-yl)-6-fluoroquinoline-4-carboxylic acid]",< 0.51 nM,34 nM,–,–,–
"CCOc1cccc(-c2cc(F)c(-c3cc(C(=O)O)c4cc(F)ccc4n3)cc2F)c1 [Cpd8, 2-(3′-ethoxy-2,5-difluoro-[1,1′-biphenyl]-4-yl)-6-fluoroquinoline-4-carboxylic acid]",< 0.51 nM,< 2 nM,–,–,–
"CCOc1cccc(-c2ccc(-c3cc(C(=O)O)c4cc(F)ccc4n3)cc2Cl)c1 [Cpd20, 2-(2-chloro-3′-ethoxy-[1,1′-biphenyl]-4-yl)-6-fluoroquinoline-4-carboxylic acid]",0.6 nM,< 2 nM,–,–,–
"CCOc1ccc(-c2ccc(-c3cc(C(=O)O)c4cc(F)ccc4n3)c(F)c2)cc1 [Cpd9, 2-(4′-ethoxy-3-fluoro-[1,1′-biphenyl]-4-yl)-6-fluoroquinoline-4-carboxylic acid]",5.5 nM,–,–,–,–
"CCOc1cccc(-c2ccc(-c3cc(C(=O)O)c4cc(F)ccc4n3)cc2OC)c1 [Cpd16, 2-(3′-ethoxy-2-methoxy-[1,1′-biphenyl]-4-yl)-6-fluoroquinoline-4-carboxylic acid]",1.3 nM,< 2 nM,–,–,–
"CCOc1cccc(-c2ccc(-c3cc(C(=O)O)c4cc(F)ccc4n3)c(F)c2)c1 [Cpd10, 2-(3′-ethoxy-3-fluoro-[1,1′-biphenyl]-4-yl)-6-fluoroquinoline-4-carboxylic acid]",0.7 nM,< 2 nM,–,–,–
"CCCCOc1cccc(-c2ccc(-c3cc(C(=O)O)c4cc(F)ccc4n3)cc2F)c1 [Cpd3, 2-(3′-butoxy-2-fluoro-[1,1′-biphenyl]-4-yl)-6-fluoroquinoline-4-carboxylic acid]",< 0.5 nM,16 nM,–,–,–
"CCOc1ccc(-c2ccc(-c3cc(C(=O)O)c4cc(F)ccc4n3)c(OC)c2)cc1 [Cpd23, 2-(4′-ethoxy-3-methoxy-[1,1′-biphenyl]-4-yl)-6-fluoroquinoline-4-carboxylic acid]",16 nM,532 nM,–,–,–
"CCOc1ccc(-c2ccc(-c3cc(C(=O)O)c4cc(F)ccc4n3)cc2OC)cc1 [Cpd15, 2-(4′-ethoxy-2-methoxy-[1,1′-biphenyl]-4-yl)-6-fluoroquinoline-4-carboxylic acid]",4.2 nM,< 2 nM,–,–,–
"CCCCOc1cccc(-c2ccc(-c3cc(C(=O)O)c4cc(F)ccc4n3)c(OC)c2)c1 [Cpd26, 2-(3′-butoxy-3-methoxy-[1,1′-biphenyl]-4-yl)-6-fluoroquinoline-4-carboxylic acid]",0.7 nM,11 nM,–,–,–
